Data published in ChEMBL document CHEMBL3301361, “Experimental in vitro DMPK and physicochemical data on a set of publicly disclosed compounds”.
In brackets after ≈: the same amount, converted by molar mass. Residues, ends and D or L forms follow the SMILES beside them.

Tests used:
[1] = in vitro; conditions: Beagle, dog, plasma
[2] = in vitro; conditions: SD, HW or BN, rat, plasma
[3] = physchem; conditions: octan-1-ol/water
[4] = in vitro; conditions: human, plasma
[5] = physchem; conditions: pH 7.4 buffer
[6] = in vitro; conditions: human
[7] = in vitro; conditions: hepatocytes

Structure (SMILES) | fraction unbound at 5 h [1] | fraction unbound at 5 h [2] | logD ([3]; pH 7.4, LogD7.4) | fraction unbound at 5 h ([4]; PPB) | solubility thermodynamic [5] | logD ([3]; pH 7.4) | fraction unbound at 5 h [4] | microsomal CLint ([6]; microsomes) | hepatocyte CLint [7] | microsomal CLint ([6]; liver microsomes)
CC(C)Oc1cc(Nc2nc3c(cc2F)ncn3[C@@H](CO)c2ccc(F)cn2)n[nH]1 | 0.249 | 0.119 | 2.97 | 0.051 | – | – | – | – | – | –
O=C(O)[C@H](Cc1ccc(F)cc1)N1CCC(CN2CCC(Oc3ccc(Cl)c(Cl)c3)CC2)CC1 | 0.224 | 0.22 | 2.98 | 0.114 | 72.4 µM (≈ 36.9 µg/mL) | – | – | – | – | –
Cc1cc(Nc2nc(N[C@@H](C)c3ncc(F)cn3)c(C#N)nc2C)n[nH]1 | 0.454 | 0.349 | 1.92 | 0.304 | – | – | – | – | – | –
Cc1cc(Nc2nc(O[C@@H](C)c3ncc(F)cn3)ncc2Cl)[nH]n1 | 0.489 | 0.339 | 1.82 | 0.249 | – | – | – | – | – | –
O=C(Nc1ccccc1F)N[C@H]1N=C(c2ccccc2)c2ccccc2NC1=O [RSV-604] | 0.0307 | 0.0274 | – | – | 2.6 µM (≈ 1.01 µg/mL) | 4 | 0.0366 | – | – | –
C#CC[C@@H](C(=O)N[C@H](/C=C/C(=O)OCC)C[C@@H]1CCNC1=O)n1cccc(NC(=O)c2cc(C)on2)c1=O [IMOCITRELVIR] | 0.535 | – | 1.75 | 0.443 | – | – | – | 20.9 µL/min/mg | > 150 µL/min/1e6 cells | –
N[C@H]1CCN(c2c(Cl)cccc2/C=C2\SC(=O)NC2=O)C1 | 0.0581 | 0.0467 | 1.89 | 0.0234 | – | – | – | – | – | –
O=c1[nH]c2ccccc2n1CCCN1CCC(n2c(=O)[nH]c3cc(Cl)ccc32)CC1 [DOMPERIDONE] | 0.0872 | 0.069 | – | – | – | 3.45 | 0.0335 | – | – | –
Cc1cc(Nc2cnc(C#N)c(N[C@@H](C)c3ncc(F)cn3)n2)n[nH]1 | 0.398 | 0.376 | 1.96 | 0.186 | – | – | – | – | – | –
Cc1cn([C@H]2CCCN([C@@H](C)c3ccc(C(=O)O)c(Oc4cccc(Cl)c4)c3)C2)c(=O)[nH]c1=O | 0.0532 | 0.0268 | -0.26 | 0.0229 | – | – | – | – | – | –
Cc1cn([C@H]2CCCN([C@H](CC(C)C)c3ccc(C(=O)O)c(Oc4cccc(Cl)c4)c3)C2)c(=O)[nH]c1=O | 0.0366 | 0.0175 | 0.91 | 0.0274 | – | – | – | – | 9.12 µL/min/1e6 cells | –
Cc1cn([C@H]2CCCN([C@H](CC(C)(C)C)c3ccc(C(=O)O)c(Oc4cccc(Br)c4)c3)C2)c(=O)[nH]c1=O | 0.0268 | 0.0149 | 1.09 | 0.0287 | – | – | – | – | 49 µL/min/1e6 cells | –
C[C@H](CO)Nc1nc(SCc2ccco2)nc2[nH]c(=O)sc12 | 0.0274 | – | 2.21 | 0.016 | – | – | – | 8.28 µL/min/mg | 61 µL/min/1e6 cells | –
C[C@H](NC(=O)[C@@H](Cc1c[nH]c2ccccc12)NC(=O)[C@@H](N)Cc1c[nH]cn1)C(=O)N[C@@H](Cc1c[nH]c2ccccc12)C(=O)N[C@H](Cc1ccccc1)C(=O)N[C@@H](CCCCN)C(N)=O (HELM PEPTIDE1{H.[dW].A.W.[dF].K.[am]}$$$$V2.0) | 0.183 | 0.262 | – | – | – | – | – | – | – | 61.7 µL/min/mg
COC[C@H](O)Cn1c(=O)cnn(-c2ccc(Cl)c(C(=O)NCC3(O)CCCCCC3)c2)c1=O [CE-224535] | 0.552 | 0.477 | 1.46 | 0.415 | – | – | – | – | – | –
N#Cc1cccc(-c2cc(Cl)ccc2OCC(=O)O)c1 | 0.0234 | 0.0343 | – | 0.0075 | – | – | – | < 3 µL/min/mg | – | –
CC(C)(C)NC(=O)NCCN1CCCC(NC(=O)c2cc(Cl)cc(Cl)c2)C1 (configuration not stated) | 0.0633 | 0.0391 | – | 0.028 | – | – | – | – | – | –

Structure (SMILES) | fraction unbound at 5 h [1] | fraction unbound at 5 h [2] | logD ([3]; pH 7.4, LogD7.4) | fraction unbound at 5 h ([4]; PPB) | solubility thermodynamic [5] | logD ([3]; pH 7.4) | fraction unbound at 5 h [4] | microsomal CLint ([6]; microsomes) | hepatocyte CLint [7] | microsomal CLint ([6]; liver microsomes)
CC[C@@H](Nc1c(Nc2cccc(C(=O)N(C)C)c2O)c(=O)c1=O)c1ccc(C)o1 [NAVARIXIN ANHYDROUS] | 0.089 | 0.0106 | 2.32 | 0.0179 | – | – | – | – | – | –
CC(C)(C)NC(=O)NCCN1CCOC(CNC(=O)c2cc(Cl)cc(Cl)c2)C1 (configuration not stated) | 0.0818 | 0.0676 | – | 0.0606 | – | – | – | – | – | –
COc1cc2c(cc1-c1c(C)noc1C)ncc1[nH]c(=O)n([C@H](C)c3ccccn3)c12 | 0.105 | 0.0374 | 3.15 | 0.0234 | – | – | – | 7.59 µL/min/mg | – | –
Cc1cc(C(C)Nc2ccccc2)c2nc(N3CCOCC3)cc(=O)n2c1 (configuration not stated) | 0.0606 | 0.0467 | – | 0.0532 | – | – | – | – | – | –
O=C(CN1CCN(CCC2CCOCC2)CC1)NC12CC3CC(CC(C3)C1)C2 | 0.431 | 0.392 | – | 0.529 | – | – | – | – | – | –
N#CC[C@H](C1CCCC1)n1cc(-c2ncnc3[nH]ccc23)cn1 [RUXOLITINIB] | 0.166 | 0.173 | 2.55 | 0.0532 | – | – | – | – | – | –
CC1=C(C)C(=O)C(C(CCCCCC(=O)O)c2ccccc2)=C(C)C1=O (configuration not stated) [SERATRODAST] | 0.02 | – | 2.48 | – | – | – | – | 3 µL/min/mg | 85 µL/min/1e6 cells | –
O=c1cc(N2CCOCC2)nc2n(Cc3cccc4ccccc34)ccn12 | 0.0676 | 0.0477 | 3.3 | 0.0307 | – | – | – | – | – | –
CO[C@H]1CN(CCn2c(=O)ccc3ccc(C#N)cc32)CC[C@H]1NCc1cc2c(cn1)OCCO2 | 0.569 | 0.738 | 0.63 | 0.483 | – | – | – | – | – | –
COc1ccc2c(C)cc(N[C@H]3CC[C@H](NCc4cn(C)c5ccc(C#N)cc45)C3)nc2c1 | 0.0209 | 0.0146 | – | 0.0139 | – | – | – | – | – | –
O=C(Cn1c(Cl)cnc(NCC(F)(F)c2ccccn2)c1=O)NCc1ncccc1F [DPOC-4088] | 0.392 | 0.208 | – | 0.28 | – | – | – | – | – | –
COCCOC(=O)C1=C(C)NC(C)=C(C(=O)OC(C)C)C1c1cccc([N+](=O)[O-])c1 (configuration not stated) [NIMODIPINE] | 0.0116 | 0.0175 | 3.8 | 0.0183 | 3.1 µM (≈ 1.3 µg/mL) | – | – | – | – | –
CCCCNC(=O)c1ccc(Oc2ccc(CC(=O)O)cc2OC)c(NS(=O)(=O)c2ccc(Cl)cc2Cl)c1 | 0.0171 | 0.0019 | – | 0.002 | – | – | – | < 3 µL/min/mg | – | –
CC(C)Oc1cc(-n2cnc3ccc(N[C@@H](CO)c4ccc(F)cn4)nc32)n[nH]1 | 0.304 | 0.186 | 2.79 | 0.0818 | – | – | – | – | – | –
Cc1cc(Nc2cnc(C#N)c(N[C@@H](C)c3ccc(F)cn3)n2)n[nH]1 | 0.204 | 0.16 | 2.51 | 0.145 | – | – | – | – | – | –
C[C@@H]1C[C@H]2[C@@H]3CCC4=CC(=O)C=C[C@]4(C)[C@@]3(Cl)[C@@H](O)C[C@]2(C)[C@@]1(OC(=O)c1ccco1)C(=O)CCl [MOMETASONE FUROATE] | 0.003 | 0.001 | – | 0.0023 | – | – | – | – | – | –
